Where two headings read alike, the source gives them in different places. Positions of bridges follow the written chain, without caps; N, C: chain ends. No end group written: not given here. *: point of attachment. long‑chain biotin = O=C(CCCC[C@@H]1SC[C@@H]2NC(=O)N[C@@H]21)NCCCCCC(=O)*; cfSGFP2 = cysteine-free variant of the GFP
What was measured:
[1] = test system: caspase-3 (CASP3); experiment: Proteolytic cleavage by caspase-3 (SDS-PAGE or MALDI); type: biochemical, human; settings: 10 µM sensor, 2 h, 37 °C; SDS-PAGE (sensor 4) or MALDI (sensor 5)
Experimental: Proteolytic cleavage reactions
Supplementary Fig. 4. Proteolytic cleavage of candidate sensors and assessment by bioas-say. (a-e) Cleavage reaction products after incubation of 10 µM sensor with or without enzyme for 2 h at 37 °C. (a) MALDI mass spectrum of sensor (1) after incubation with or without FAP […]
(b) SDS-PAGE analysis of sensor
(c) SDS-PAGE analysis of sensor (3) after incubation with different concentrations of EK light […]
(d) SDS-PAGE analysis of sen- […]
and liberation of free CGRP. (f-k) Dose-response curves of uncleaved and cleaved sensors in […]
(f) Dose-response curves for Sensors (2-4) at final assay concentrations up to 10 uM (addition of 10 µL of 100 µM solution to 90 µL medium per well in bioassay) show no receptor activation by uncleaved GFP-linker-CGRP-G sensors even at 10-fold higher concentrations than were used in cleavage assays (g-k). (g-k) Dose-response curves for reaction products from (a-e). Error bars in (f-k) denote SD of measurements performed in triplicate.
(1 picture or pasted object on this page, not shown here)

[2] = target: T1, RAMP1/CLR CGRP receptor heterodimer in HEK293FT reporter cells (Homo sapiens, UniProt O60894+Q16602); experiment: Luminescent cAMP (GloSensor) cell-based bioassay for CGRP receptor activation; settings: for Log(EC50), Cleaved: after protease: (1) 5 ng/μl human FAP, (2) 0.1 U/μl TEV, (3) 2 pg/μl EK light chain, (4) 23 ng/μl, (5) 11.5 ng/μl human CASP3; for Log(EC50), Cleaved / Log(EC50), Uncleaved: s.e.m. <0.1 (n=7); for Log(EC50), Uncleaved: incubated without protease
T1 construct: HA-CALCRL: Human calcitonin receptor-like receptor preceded by the H. influenza; Human receptor-activity modifying protein 1 preceded by the H. influenza; hemagglutinin signal peptide (heterologous, replaces the native one) (N); expressed in transfected cells
T1 sequence (Q16602 23-461): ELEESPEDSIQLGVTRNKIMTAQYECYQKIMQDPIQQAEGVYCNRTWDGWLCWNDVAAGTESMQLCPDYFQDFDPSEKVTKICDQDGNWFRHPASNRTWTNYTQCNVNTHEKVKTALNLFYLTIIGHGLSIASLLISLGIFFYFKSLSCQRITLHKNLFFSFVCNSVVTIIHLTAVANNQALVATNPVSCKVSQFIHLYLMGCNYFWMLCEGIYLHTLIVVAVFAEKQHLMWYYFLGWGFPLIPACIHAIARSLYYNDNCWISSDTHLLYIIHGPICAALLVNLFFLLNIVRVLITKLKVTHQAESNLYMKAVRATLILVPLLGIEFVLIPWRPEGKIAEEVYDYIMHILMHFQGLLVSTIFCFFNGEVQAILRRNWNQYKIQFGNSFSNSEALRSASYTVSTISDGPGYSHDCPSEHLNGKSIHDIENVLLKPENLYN
T1 sequence (O60894 27-148): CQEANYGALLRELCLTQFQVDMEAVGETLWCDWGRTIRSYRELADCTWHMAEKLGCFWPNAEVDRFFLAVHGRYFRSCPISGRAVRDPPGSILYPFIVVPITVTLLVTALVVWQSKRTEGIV

[3] = test system: CASP3, in rat brain (thalamus); settings: for significant haemodynamic activation / voxel correlation with vs without CASP3: 100 nM sensor, BOLD MRI
Experimental: CASP3 sensor aliquots (100 nM) were injected at 0.1 μl min^−1 for 10 min in the presence or absence of CASP3 enzyme (2.3 ng μl^−1) in paired injections into rat thalamus.
High resolution T2-weighted anatomical scans of each animal were obtained using a rapid acquisition with relaxation enhancement (RARE) pulse sequence with echo time (TE)=44 ms, recycle time (TR)=2,500 ms, RARE factor=8, spatial resolution=100 × 100 × 500 μm, and matrix size=128 × 128 with seven slices. Haemodynamic contrast image series were acquired using a gradient echo echo planar imaging (EPI) pulse sequence with TE=34 ms, TR=4,000 ms, spatial resolution=300 × 300 × 500 μm, and matrix size=64 × 64 with seven slices. To parallel the optical imaging experiments, 5 min of baseline measurement with 4 s per image were acquired before probe infusion. Following this baseline period, while continuously collecting EPI scans, infusion pumps were remotely turned on to commence intracranial injection (in the parenchymal tissue) of 1 μl aliquots of CGRP or control solutions at the rate of 0.1 μl min^−1 through the cannulae. […] For the experiments of Fig. 3d, CGRP-based CASP3 sensors (100 nM) were co-injected simultaneously, either with or without comixed CASP3 enzyme (1.15 ng μl^−1).
MRI data was processed and analysed using the AFNI software package[47]. The AFNI 3dAllineate command was used to align each animal's EPI data set to the corresponding RARE anatomical image. Each animal's image data were then aligned to a reference MRI rat atlas[48]. To identify voxels with significant increases or decreases in BOLD signal, we used the 3dDeconvolve routines in AFNI to correlate individual or group level voxel-level signal changes with the injection epochs. For correlation analysis, injection epochs were modeled by ‘box car' regressors with a single stimulus block synchronized with the onset and offset of infusion, without delays. […] The cluster size and P value threshold were objectively chosen, based on AFNI's AlphaSim routine, to provide a type I error rate of 5% after correction for multiple comparisons[49][50]; this was appropriate for robust hypothesis testing on individual voxels throughout the entire imaging volume. […] Time courses were obtained by averaging MRI signal over 1.5 × 1.5 mm regions of interest defined around cannula tip locations in individual animals' data sets. The peak percent signal change was determined by comparing signal values during baseline and infusion conditions. Additional statistical analysis was performed in Matlab.

[4] = test system: rat brain (thalamus); nNOS; experiment: MRI of CGRP response before and after systemic nNOS inhibition with L-NAME; type: in vivo, rat (Sprague-Dawley)
Experimental: (e) Dissociation of CGRP-induced artificial haemodynamic signals from nitric oxide-mediated signalling. Left, haemodynamic responses observed by imaging upon unilateral CGRP injection into the left thalamus, before L-NAME delivery (-LN, top), or into the right thalamus, after 50 mg kg^−1 intravenous L-NAME infusion (+LN, bottom). […] Error bars throughout this figure denote s.e.m. values (n=4).
High resolution T2-weighted anatomical scans of each animal were obtained using a rapid acquisition with relaxation enhancement (RARE) pulse sequence with echo time (TE)=44 ms, recycle time (TR)=2,500 ms, RARE factor=8, spatial resolution=100 × 100 × 500 μm, and matrix size=128 × 128 with seven slices. Haemodynamic contrast image series were acquired using a gradient echo echo planar imaging (EPI) pulse sequence with TE=34 ms, TR=4,000 ms, spatial resolution=300 × 300 × 500 μm, and matrix size=64 × 64 with seven slices. To parallel the optical imaging experiments, 5 min of baseline measurement with 4 s per image were acquired before probe infusion. Following this baseline period, while continuously collecting EPI scans, infusion pumps were remotely turned on to commence intracranial injection (in the parenchymal tissue) of 1 μl aliquots of CGRP or control solutions at the rate of 0.1 μl min^−1 through the cannulae. […]
MRI data was processed and analysed using the AFNI software package[47]. […]

cfSGFP2-DEVD-CGRP-G [Sensor (4), recombinant fusion of cysteine-free GFP, a short linker, caspase-3 site and non-amidated CGRP]
cleavage by caspase-3 [1]: near-complete

cfSGFP2-DEVD-CGRP-G (cfSGFP2-GGSGDEVDACDTATCVTHRLAGLLSRSGGVVKNNFVPTNVGSKAFG; ends and bridges not checked; also: StrepII tag, position not given here) [Sensor (4), recombinant fusion of cysteine-free GFP, a short linker, caspase-3 site and non-amidated CGRP]
Log(EC50), Cleaved [2]: −6.4 | Log(EC50), Uncleaved [2]: <−5

CC(C)C[C@H](NC(=O)CNC(=O)[C@H](C)NC(=O)[C@H](CC(C)C)NC(=O)[C@H](CCCNC(=N)N)NC(=O)[C@H](Cc1c[nH]cn1)NC(=O)[C@@H](NC(=O)[C@@H](NC(=O)[C@@H]1CSSC[C@H](NC(=O)[C@H](C)N)C(=O)N[C@@H](CC(=O)O)C(=O)N[C@@H]([C@@H](C)O)C(=O)N[C@@H](C)C(=O)N[C@@H]([C@@H](C)O)C(=O)N1)C(C)C)[C@@H](C)O)C(=O)N[C@@H](CC(C)C)C(=O)N[C@@H](CO)C(=O)N[C@@H](CCCNC(=N)N)C(=O)N[C@@H](CO)C(=O)NCC(=O)NCC(=O)N[C@H](C(=O)N[C@H](C(=O)N[C@@H](CCCCN)C(=O)N[C@@H](CC(N)=O)C(=O)N[C@@H](CC(N)=O)C(=O)N[C@@H](Cc1ccccc1)C(=O)N[C@H](C(=O)N1CCC[C@H]1C(=O)N[C@H](C(=O)N[C@@H](CC(N)=O)C(=O)N[C@H](C(=O)NCC(=O)N[C@@H](CO)C(=O)N[C@@H](CCCCN)C(=O)N[C@@H](C)C(=O)N[C@@H](Cc1ccccc1)C(=O)NCC(=O)O)C(C)C)[C@@H](C)O)C(C)C)C(C)C)C(C)C [CGRP-G]
EC50 ([2]; C-terminal glycine extension, read-out: 95% CI of EC50 for receptor activation): 2.1 to 3.1 nM | EC50 ([2]; C-terminal glycine extension, read-out: EC50 for receptor activation): 2.5 nM

(long-chain biotin)-SG-DEVD-CGRP-amide (disulfide) [Sensor (5)]
peak MRI signal change in the absence of CASP3 ([3]; 100 nM sensor alone, 0.1 μl/min, 10 min, n=4): 1.6±0.5% | mean MRI peak signal change, sensor/CASP3 co-injection ([3]; 100 nM sensor with CASP3, 0.1 μl/min, 10 min, n=4, P=0.02): 7.0±0.9% | significant haemodynamic activation / voxel correlation with vs without CASP3 ([3]; corrected t-test P<0.05, listed as CASP3 sensor): observed in the presence but not the absence of the co-injected protease | significant haemodynamic activation / voxel correlation with vs without CASP3 ([3]; corrected t-test P<0.05, listed as CGRP-based molecular imaging probe (5)): Significant haemodynamic activation can be seen in the presence but not the absence of coadministered 1.15 ng μl^−1 CASP3 | cleavage by caspase-3 [1]: complete cleavage | protease sensitivity and post-cleavage potency, ranking ([2]; comparison of sensors): optimum protease sensitivity and post-cleavage potency

COC(=O)[C@@H](N)CCCNC(N)=N[N+](=O)[O-] [L-NAME, N-nitro-L-arginine methyl ester]
average increase in baseline brain MRI signal before CGRP infusion ([4]; 50 mg/kg i.v., t-test P=0.11, n=4, not significant): 3.5±2.3% | increase in baseline MRI signal after L-NAME (review reply) ([4]; during first five minutes after L-NAME injection, n=4): < 5%

cfSGFP2-ENLYFQG-CGRP-G (cfSGFP2-GGSGENLYFQGACDTATCVTHRLAGLLSRSGGVVKNNFVPTNVGSKAFG; ends and bridges not checked; also: StrepII tag, position not given here) [Sensor (2), recombinant fusion of cysteine-free GFP, a short linker, TEV protease site and non-amidated CGRP]
Log(EC50), Cleaved [2]: −6.0 | Log(EC50), Uncleaved [2]: <−5

CC(C)C[C@H](NC(=O)CNC(=O)[C@H](C)NC(=O)[C@H](CC(C)C)NC(=O)[C@H](CCCNC(=N)N)NC(=O)[C@H](Cc1c[nH]cn1)NC(=O)[C@@H](NC(=O)[C@@H](NC(=O)[C@@H]1CSSC[C@H](NC(=O)[C@H](C)NC(=O)[C@@H]2CCCN2C(=O)[C@H](C)N)C(=O)N[C@@H](CC(=O)O)C(=O)N[C@@H]([C@@H](C)O)C(=O)N[C@@H](C)C(=O)N[C@@H]([C@@H](C)O)C(=O)N1)C(C)C)[C@@H](C)O)C(=O)N[C@@H](CC(C)C)C(=O)N[C@@H](CO)C(=O)N[C@@H](CCCNC(=N)N)C(=O)N[C@@H](CO)C(=O)NCC(=O)NCC(=O)N[C@H](C(=O)N[C@H](C(=O)N[C@@H](CCCCN)C(=O)N[C@@H](CC(N)=O)C(=O)N[C@@H](CC(N)=O)C(=O)N[C@@H](Cc1ccccc1)C(=O)N[C@H](C(=O)N1CCC[C@H]1C(=O)N[C@H](C(=O)N[C@@H](CC(N)=O)C(=O)N[C@H](C(=O)NCC(=O)N[C@@H](CO)C(=O)N[C@@H](CCCCN)C(=O)N[C@@H](C)C(=O)N[C@@H](Cc1ccccc1)C(N)=O)C(C)C)[C@@H](C)O)C(C)C)C(C)C)C(C)C [Sensor (1)]
EC50 ([2]; after FAP cleavage, 95% CI, read-out: CI of EC50 following cleavage): 0.013 to 0.02 nM | EC50 ([2]; uncleaved FAP sensor, 95% CI, read-out: CI of EC50 before cleavage): 0.112 to 0.116 nM | EC50 ([2]; uncleaved FAP sensor, read-out: EC50 before cleavage): 0.114 nM

cfSGFP2-DDDDK-CGRP-G (cfSGFP2-GGSGDDDDKACDTATCVTHRLAGLLSRSGGVVKNNFVPTNVGSKAFG; ends and bridges not checked; also: StrepII tag, position not given here) [Sensor (3), recombinant fusion of cysteine-free GFP, a short linker, enterokinase site and non-amidated CGRP]
Log(EC50), Cleaved [2]: −6.4 | Log(EC50), Uncleaved [2]: <−5

(long-chain biotin)-SG-DEVD-CGRP-amide (disulfide) ({long‑chain biotin}-SGDEVDACDTATCVTHRLAGLLSRSGGVVKNNFVPTNVGSKAF-NH2; disulfide 8-13) [Sensor (5)]
EC50 ([2]; after CASP3 cleavage, 95% CI, read-out: CI of EC50 following cleavage): 0.038 to 0.046 nM | EC50 ([2]; uncleaved CASP3 sensor, 95% CI, read-out: CI of EC50 before cleavage): 5.2 to 6.4 nM | EC50 ([2]; uncleaved CASP3 sensor, read-out: EC50 before cleavage): 5.7 nM

From publication PMC5146284, “Molecular imaging with engineered physiology” (Nature Communications, 2016)
